Earlier results on one compound are cited in US20040220135A1 (priority 2003, published 2004).

In this data set the test system is liver metastases. As to conditions: Gray et al (2001) Annals of Oncology 12: 1711-1720.

On to `O=c1[nH]c(=O)n([C@H]2C[C@H](O)[C@@H](CO)O2)cc1F` [floxuridine], for which the Response rate is recorded as 17.6% and the “Time to disease progression” value is 9.7 months.
